Each compound was assayed on Bel-7402 (assay: Cytotoxicity against human Bel7402 cells by MTT assay).
Type: functional, cell-based
Work on `CC(=O)O[C@H]1[C@H]2O[C@]23[C@@H]2[C@@H](O)C[C@@H]4C[C@@H](O)CC[C@]4(C)[C@H]2CC[C@]3(C)[C@H]1c1ccc(=O)oc1` yielded an IC50 of 540 nM. `CC(=O)O[C@H]1[C@H]2O[C@]23[C@@H]2CC[C@]4(O)C[C@@H](O)CC[C@]4(C)[C@H]2C[C@@H](O)[C@]3(C)[C@H]1c1ccc(=O)oc1` was tested, and the IC50 was 660 nM. With `CC(=O)O[C@H]1[C@H]2O[C@]23[C@@H]2CC[C@]4(O)C[C@@H](O)CC[C@]4(C)[C@H]2CC[C@]3(C)[C@H]1c1ccc(=O)oc1` [CINOBUFOTALIN] the IC50 was 1210 nM. For `CC(=O)O[C@H]1[C@H]2O[C@]23[C@@H]2CC[C@@H]4C[C@@H](O)CC[C@]4(C)[C@H]2CC[C@]3(C)[C@H]1c1ccc(=O)oc1` [CINOBUFAGIN], the IC50 was 100 nM. `CC(=O)O[C@H]1[C@H]2O[C@]23[C@@H]2CC[C@@H]4C[C@@H](O)CC[C@]4(C)[C@H]2C[C@@H](O)[C@]3(C)[C@H]1c1ccc(=O)oc1` gave an IC50 of 370 nM.
